Columns and labels:
Dhcr7 = assay: displacement of Dhcr7-specific probe; assay type: binding, mouse
Ebp, Dhcr7, and Dhcr24 = assay: cellular levels of sterols that mark inhibition of Ebp, Dhcr7, Dhcr24; assay type: cell-based; conditions: for cellular 8,9-dehydrocholesterol (8,9-DHC) levels: marker of EBP inhibition
Description: Inhibition of these sterol biosynthetic enzymes might provide an explanation for our observation that Ro-48-8071 has a blunted increase in EPC following LSS inhibition. […] Consistent with the proteomics data, Ro 48-8071 and TASIN-30, but not 1, displaced TASIN-2 (band migrating at approximately 20 kDa).
Consistent with inhibition, the cellular levels of 7-dehydrodesmosterol, a Dhcr7 substrate, accumulated following treatment with Ro 48-8071 but not 1.

[1] = test system: enzymes downstream of LSS; assay: d6-EPC production from isotopically labeled EPL (d6-EPL) in cells; assay type: cell-based
Description: This latter observation raised the hypothesis that Ro 48-8071 inhibited one or more enzymes downstream of LSS thereby blunting EPC synthesis. To evaluate whether Ro 48-8071 inhibits the synthesis of EPC downstream of EPL, we cultured cells with isotopically labeled EPL (d6-EPL) and measured d6-EPC production following compound treatment. Ro 48-8071 inhibited the production of d6-EPC while 1 had no effect on d6-EPC production. […] For small molecules that inhibit enzymes downstream of LSS, our prediction is that lanosterol would not be efficiently converted to cholesterol and therefore would not rescue toxicity as effectively as cholesterol. […] By comparison, exogenous lanosterol and cholesterol provided a complete and equivalent degree of rescue in cells treated with 1.

Lss = assay: quantification of canonical and shunt pathway sterol intermediates in Mut6 cells; assay type: cell-based, mouse
Description: Inhibitors of LSS block the canonical cholesterol biosynthetic pathway (referred to as the Bloch and Kandutsch-Russell pathways) and concomitantly stimulate the production of 24(S),25-epoxycholesterol (EPC) through a “shunt” pathway (Mark et al., 1996; Morand et al., 1997). For sterol synthesis, squalene, a symmetric polyene hydrocarbon intermediate in the cholesterol biosynthetic pathway, is oxidized by squalene epoxidase (SQLE) in the presence of NADPH and oxygen to generate (S)-2,3-oxidosqualene (OS), which in turn is converted by LSS into lanosterol. LSS inhibition shunts OS back to SQLE, which catalyzes a second oxidation event yielding the C2-symmetric (S,S)-2,3:22,23-dioxidosqualene (DOS). DOS is a preferred substrate for LSS and, even in the presence of an LSS inhibitor, DOS is converted by LSS into 24(S),25-epoxylanosterol (EPL) (Boutaud et al., 1992). EPL is further converted into EPC by the same enzymes that convert lanosterol into cholesterol (Nelson et al., 1981a; Nelson et al., 1981b). The overall consequence of LSS inhibition is reduced levels of canonical pathway intermediates and increased levels of shunt pathway intermediates. […] We considered that the decrease in EPC at higher concentrations might be the result of complete inhibition of LSS; however, the levels of DOS and EPL continued to increase at doses where EPC was decreasing. […] Pertinent to this hypothesis, in astrocytes, EPC stimulates the expression of sterol transporters including ABCA1 and is itself readily effluxed (Wong et al., 2007). We hypothesize that a threshold level of EPC, reached at higher concentrations of 1, activates transporter expression, leading to EPC efflux and the observed decrease in EPC levels. Taken together, we conclude that inhibition of Lss by MM0299 (1) leads to a dose-dependent decrease in canonical intermediates and an increase in shunt pathway intermediates.
To better gauge the role of EPC in the anti-cancer activity of 1, we sought to determine whether the levels of EPC achieved in cells treated with 1 are sufficient for toxicity.

Mut6 cells = assay: rescue of toxicity by co-treatment with SQLE inhibitor NB-598 in Mut6 cells; assay type: cell-based, murine; conditions: co-treatment with NB-598
Description: To assess whether EPC was necessary for MM0299 activity, we considered pharmacologic tools that could selectively block the shunt pathway. In the context of LSS inhibition, the production of DOS requires two cycles of oxidation by squalene epoxidase (SQLE), whereas OS only requires one. Therefore, we reasoned that co-administration of an SQLE inhibitor might have a greater effect on DOS levels and impede flux through the shunt pathway. […] Taken together, we concluded that NB-598 is a pharmacologic tool to selectively block the shunt pathway and assess the requirement for EPC for MM0299 activity. […] These observations are consistent with the hypothesis that inhibition of LSS and the consequent increase in EPC are responsible for toxicity at low nanomolar range. We noted that 1 remained toxic to Mut6 cells at higher concentrations despite the addition of NB-598. Toxicity at these concentrations, which are not likely to be pharmacologically achievable, is unlikely to be a consequence of EPC production, and more likely to be the result of sterol depletion through direct inhibition of cholesterol biosynthesis.
As a consequence, even though Ro-48-8071 inhibits LSS, its anti-proliferative effects are more likely to be multifactorial. To evaluate the contribution of EPC for Ro 48-8071-induced toxicity, we co-incubated Ro 48-8071 with increasing concentrations of NB-598.

SMILES	displacement of Dhcr7-probe (crosslinked Dhcr7 band) (Dhcr7)	cellular 8,9-dehydrocholesterol (8,9-DHC) levels (Ebp, Dhcr7, and Dhcr24)	effect on d6-EPC production from d6-EPL [1]	increase of EPC at peak (Lss; 0.1 μM compound 1)	peak level of EPC (Lss; 0.1 μM compound 1)	EPC level after lethal dose (Lss; 1 at 0.1 μM)	IC50 (Lss; Mus musculus, read-out: IC50 of lanosterol decrease)	dose-dependent decrease in the product lanosterol (Lss; maximum)	dose-dependent increase in the primary LSS substrate OS (Lss; maximum)	increase in shunt pathway intermediate DOS (Lss; maximum)	increase in shunt pathway intermediate EPL (Lss; maximum)	increase in the IC50 with NB-598 (Mut6 cells)	cellular levels of 7-dehydrodesmosterol (Ebp, Dhcr7, and Dhcr24; Dhcr7 substrate)	accumulation of desmosterol (Ebp, Dhcr7, and Dhcr24; marker of Dhcr24 inhibition, high doses)	peak levels of EPC relative to those after 1 treatment (Lss)
COc1ccc(C(=O)COc2ccc(N3C(=O)[C@@H]4[C@@H]5C=C[C@@H]([C@H]6C[C@@H]56)[C@@H]4C3=O)cc2)cc1 [compound 1, (3aR,4R,4aR,5aS,6S,6aS)-2-(4-(2-(4-Methoxyphenyl)-2-oxoethoxy)phenyl)-4,4a,5,5a,6,6a-hexahydro-4,6-ethenocyclopropa[f]isoindole-1,3(2H,3aH)-dione]	did not displace	no effect	no effect	13.9 fold	390 ng/mg protein	342 ng EPC/mg protein	0.0455 µM	up to 24.5 fold	up to 6.48 fold	up to 17.9 fold	≤ 25.6 fold	11.8 fold	–	–	–
C=CCN(C)CCCCCCOc1ccc(C(=O)c2ccc(Br)cc2)c(F)c1 [Ro 48-8071, reference compound]	displaced	accumulation	inhibited	–	–	–	–	–	–	–	–	3.2 fold	accumulated	accumulation	62%

From patent US20250034091A1, “Small molecule inhibitors of lanosterol synthase” (Board of Regents, The University of Texas System, priority 2022, published 2025)
